Among the data in PMC7180728, “Novel Anthraquinone Compounds Inhibit Colon Cancer Cell Proliferation via the Reactive Oxygen Species/JNK Pathway” (Molecules, 2020) are IC50 values, retold here.

SMILES strings stand for the structures.

The assay concerns FHC. The assay is described as follows: MTT cell proliferation assay, normal colorectal cells FHC. The assay is classed as cell-based. The note with it: FHC normal human colorectal mucosa, 48 h. As for the experimental part: The effects of the synthesized amide anthraquinone derivatives on the proliferative activity of eight human cancerous cell lines (EC9706, MCF-7, SGC-7901, HepG2, QBC939, HeLa, HCT116 and SW480) in addition to two normal human cell lines (colorectal FHC and liver HL7702) were evaluated using the standard MTT assay.
The human esophageal cancer cell line EC9706 was obtained from Cancer Hospital and Institute by Prof. Ming Rong Wang, Chinese Academy Medical of Sciences. The human colorectal carcinoma cell lines HCT116 and SW480, hepatoma cell line HepG2, cervical carcinoma cell line HeLa, breast cancer cell line MCF-7, gastric cancer cell line SGC-7901, cholangiocarcinoma cell line QBC939, normal fetal colon cell line FHC and liver cell line HL-7702 were obtained from the Cell Bank of the Shanghai Chinese Academy of Sciences. All cells were cultured in RPMI 1640 medium containing 100 U/mL penicillin and streptomycin and 10% fetal bovine serum and maintained at 37°C under a 5% CO2 atmosphere.
We analyzed the inhibitory effects of eight anthraquinone-amino acid derivatives on the proliferation of eight tumor cell lines and two normal cell lines in vitro using MTT assays. Cells were added to a 96-well plate with (5,000 cells per well in 100 µL RPMI-1640 medium). Cells were treated with different concentrations (10–100 μg/mL) of 8a–8h for 48 h and then incubated with 20 μL MTT (5 mg/mL) for another 4 h at 37°C. DMSO (150 μL) was then added to each well to dissolve the formazan crystals. The absorbance of each well was read at 490 nm on a microtiter plate ELISA reader. The mean values were obtained from a minimum of three parallel experiments. IC50 values were calculated.

For the molecule `CC(C)CC(NC(=O)c1ccc2c(c1[N+](=O)[O-])C(=O)c1ccccc1C2=O)C(=O)O` (stereo not shown) [Compound 8a, N-[(9,10-dihydro-1-nitro-9,10-dioxo-2-anthracenyl)carbonyl-leucine]], the IC50 was more than 1000 µg/mL.
